Data from ChEMBL document CHEMBL4483862, “Open-source discovery of chemical leads for next-generation chemoprotective antimalarials” (2018).

System: Plasmodium berghei
Test: Luciferase/luciferin-expressing antifolate-resistant parasites were used to infect a culture of HepG2 cells that were pre-incubated with compounds. Infected hepatocytes emit light due to the luciferase reaction. Assay results are presented as the percent inhibition of light emission compared to control. […]
Format: functional
Conditions: sporozoite; for IC90: read-out: LUCIFERASE INFECTION ASSAY - IC90
[1] = read-out: LUCIFERASE INFECTION ASSAY - IC50

For `CCN(c1ccccc1)S(=O)(=O)c1cc(-c2oc3ccc(F)cc3c(=O)c2C)ccc1C`, the IC50 (PBLUC_HILL_SLOPE 4.38, PBLUC_R_SQUARED 0.421, read-out: LUCIFERASE INFECTION ASSAY - IC50) was 6.53 µM and the IC90 was > 10 µM.

With `C=CCN(CC(=O)NC1CCS(=O)(=O)C1)S(=O)(=O)c1ccccc1C(F)(F)F` (stereo not drawn) the IC50 (FFLUC_HILL_SLOPE 0.888, FFLUC_R_SQUARED 0.174, read-out: LUCIFERASE INFECTION ASSAY - IC50) was > 10 µM and the IC90 was > 10 µM.

For `CCCn1c(SCC(=O)NCC23CC4CC(CC(C4)C2)C3)nc2cc(Cl)ccc2c1=O`, the IC50 (FFLUC_HILL_SLOPE 1.09, FFLUC_R_SQUARED 0.071, read-out: LUCIFERASE INFECTION ASSAY - IC50) was > 10 µM and the IC90 was > 10 µM.

For `Cn1c(=O)c2cc(NC(=O)CC(C)(C)C)ccc2n1Cc1ccccc1`, the IC50 [1] was > 9.39 µM and the IC90 was > 9.39 µM.

`c1ccc(-c2cc3c(N4CCC(c5ncc[nH]5)CC4)ncnc3s2)cc1` was tested, and the IC50 (PBLUC_HILL_SLOPE 15.6, PBLUC_R_SQUARED 0.358, read-out: LUCIFERASE INFECTION ASSAY - IC50) was 3.43 µM and the IC90 was 3.94 µM.

With `Cc1c(-c2ccccc2)oc2c(C(=O)N3CCc4ccccc4C3)cccc2c1=O` the IC50 (PBLUC_HILL_SLOPE 6.24, PBLUC_R_SQUARED 0.0221, read-out: LUCIFERASE INFECTION ASSAY - IC50) was > 10 µM and the IC90 was > 10 µM.

With `Fc1ccc(-c2ccc3ncc(-c4cccnc4)n3n2)cc1` the IC50 (HEPG2TOX_HILL_SLOPE 0.173, HEPG2TOX_R_SQUARED 0.325, read-out: LUCIFERASE INFECTION ASSAY - IC50) was > 3.33 µM and the IC90 was > 3.33 µM.

`C(=N\c1ccc2ccccc2c1)/Nc1ccc2ccccc2c1` was tested, and the IC50 (HEPG2TOX_HILL_SLOPE 0.512, HEPG2TOX_R_SQUARED 0.0455, PBLUC_HILL_SLOPE 17.2, PBLUC_R_SQUARED 0.33, read-out: LUCIFERASE INFECTION ASSAY - IC50) was 10.8 µM and the IC90 was > 11.1 µM.

In the case of `O=C(Nc1ccc(Cl)c(C(F)(F)F)c1)C(OC(=O)C12CC3CC(CC(C3)C1)C2)c1ccccc1` (stereo not drawn), the IC50 (HEPG2TOX_HILL_SLOPE 10.4, HEPG2TOX_R_SQUARED 0.074, PBLUC_HILL_SLOPE 15.3, PBLUC_R_SQUARED 0.511, read-out: LUCIFERASE INFECTION ASSAY - IC50) is reported as 8.31 µM and the IC90 is reported as 9.6 µM.

For `Cc1ccc2[nH]c3c(c2c1)CCCC3N` (stereo not drawn), the IC50 (HEPG2TOX_HILL_SLOPE 3.36, HEPG2TOX_R_SQUARED 0.51, PBLUC_HILL_SLOPE 2.39, PBLUC_R_SQUARED 0.343, read-out: LUCIFERASE INFECTION ASSAY - IC50) was 4.17 µM and the IC90 was 10.5 µM.

With `CC(C)=CC(=O)Nc1scc(-c2ccccc2)c1C(=O)OCC(=O)Nc1ccc([N+](=O)[O-])cc1Cl` the IC50 (HEPG2TOX_HILL_SLOPE 0.0482, HEPG2TOX_R_SQUARED 0.161, PBLUC_HILL_SLOPE 2.32, PBLUC_R_SQUARED 0.465, read-out: LUCIFERASE INFECTION ASSAY - IC50) was 5.35 µM and the IC90 was > 10 µM.

`CC(C)(C)c1cc(N2Cc3ccccc3C2=N)cc(C(C)(C)C)c1` was tested, and the IC50 [1] was > 10 µM and the IC90 was > 10 µM.

With `CCn1ncc2c(C(=O)Nc3nc(-c4ccc(OC)cc4OC)cs3)cc(-c3cccs3)nc21` the IC50 [1] was > 10 µM and the IC90 was > 10 µM.

With `CCCC(=O)Nc1ccc(C(=O)C(C)SC2=NN/C(=C3\C=Nc4ccccc43)N2c2ccc(OCC)cc2)cc1` (stereo not drawn) the IC50 (PBLUC_HILL_SLOPE 9.99, PBLUC_R_SQUARED 0.53, read-out: LUCIFERASE INFECTION ASSAY - IC50) was 8.08 µM and the IC90 was > 10 µM.

`O=C(NNC(=O)c1ccccc1Nc1ccccc1)c1ccccc1O` showed an IC50 [1] of 8.81 µM and an IC90 of 9.6 µM.

For `COc1ccc2c(CC(=O)N(c3cc(C)cc(C)c3)c3nc(-c4ccc(Br)cc4)cs3)coc2c1`, the IC50 (FFLUC_HILL_SLOPE 2.23, FFLUC_R_SQUARED 0.6, read-out: LUCIFERASE INFECTION ASSAY - IC50) was > 10 µM and the IC90 was > 10 µM.

With `O=C(CCc1c[nH]c2ccccc12)Nc1ccc(N2CCc3sccc3C2)nc1` the IC50 [1] was 8.67 µM and the IC90 was > 10 µM.

With `CCOc1ccccc1CCC(=O)NCc1ccc(CS(N)(=O)=O)cc1` the IC50 [1] was > 10 µM and the IC90 was > 10 µM.

In the case of `CN1C(=O)/C(=C\c2ccccc2[N+](=O)[O-])c2ccccc21`, the IC50 [1] is reported as 9.31 µM and the IC90 is reported as > 10 µM.

In the case of `Cc1cc2nc(Oc3ccc4c(c3)CCC4)c3ccccc3n2n1`, the IC50 [1] is reported as > 10 µM and the IC90 is reported as > 10 µM.

Compound `O=C(Nc1ccc(Oc2cc(C(F)(F)F)cc(C(F)(F)F)c2)cc1)c1cccs1` has an IC50 (PBLUC_HILL_SLOPE 1.36, PBLUC_R_SQUARED 0.733, read-out: LUCIFERASE INFECTION ASSAY - IC50) of 0.0707 µM and an IC90 of 0.356 µM.

For `CCOc1ccc(/C=C/c2ccc3c(Cl)cc(Cl)c(O)c3n2)cc1OC`, the IC50 (HEPG2TOX_HILL_SLOPE 1.14, HEPG2TOX_R_SQUARED 0.782, PBLUC_HILL_SLOPE 2.47, PBLUC_R_SQUARED 0.699, read-out: LUCIFERASE INFECTION ASSAY - IC50) was 4.52 µM and the IC90 was > 10 µM.

`CC(=O)c1c(C)[nH]c(C(=O)Nc2nc(-c3ccc4c(c3)CCC4)cs2)c1C` was tested, and the IC50 [1] was 6.23 µM and the IC90 was > 10 µM.

`O=[N+]([O-])c1ccc(Oc2c(Cl)cc(S(=O)(=O)Nc3cccc(C(F)(F)F)c3)cc2Cl)c(Cl)c1` was tested, and the IC50 (FFLUC_HILL_SLOPE 1.65, FFLUC_R_SQUARED 0.655, read-out: LUCIFERASE INFECTION ASSAY - IC50) was > 6.09 µM and the IC90 was > 6.09 µM.

With `Cc1ccc(CCC2CCN(C(=O)c3ccc(NS(=O)(=O)c4cccs4)cc3O)CC2)cc1` the IC50 (FFLUC_HILL_SLOPE 12, FFLUC_R_SQUARED 0.0293, HEPG2TOX_HILL_SLOPE 12.4, HEPG2TOX_R_SQUARED 0.101, read-out: LUCIFERASE INFECTION ASSAY - IC50) was > 10 µM and the IC90 was > 10 µM.

`Cc1cc2n(n1)c(C)cc(C)[n+]2-c1ccccc1` was tested, and the IC50 (FFLUC_HILL_SLOPE 7.82, FFLUC_R_SQUARED 0.313, HEPG2TOX_HILL_SLOPE 3.53, HEPG2TOX_R_SQUARED 0.979, PBLUC_HILL_SLOPE 9.65, PBLUC_R_SQUARED 0.44, read-out: LUCIFERASE INFECTION ASSAY - IC50) was 3.64 µM and the IC90 was 4.57 µM.

For `O=C1CCC(c2ccccc2)C(=O)/C1=N\Nc1ccccc1Cl` (stereo not drawn), the IC50 [1] was > 10.1 µM and the IC90 was > 10.1 µM.

With `CC1CCCN(c2ccc(C#N)cn2)C1` (stereo not drawn) the IC50 (HEPG2TOX_HILL_SLOPE 1.55, HEPG2TOX_R_SQUARED 0.88, PBLUC_HILL_SLOPE 1.47, PBLUC_R_SQUARED 0.333, read-out: LUCIFERASE INFECTION ASSAY - IC50) was > 10 µM and the IC90 was > 10 µM.

In the case of `COc1ccc(S(=O)(=O)NC(C)(C)C)cc1C(C)(C)C`, the IC50 (PBLUC_HILL_SLOPE 0.386, PBLUC_R_SQUARED 0.474, read-out: LUCIFERASE INFECTION ASSAY - IC50) is reported as 0.196 µM and the IC90 is reported as > 3.33 µM.

For `CCCCN(C)S(=O)(=O)c1ccc(NC(=O)c2cccc(C(F)(F)F)c2)cc1`, the IC50 (PBLUC_HILL_SLOPE 3.75, PBLUC_R_SQUARED 0.618, read-out: LUCIFERASE INFECTION ASSAY - IC50) was 5.87 µM and the IC90 was > 10 µM.

In the case of `COCCN1C=C(C(=O)OC)C(c2cccc(O)c2)C(C(=O)OC)=C1`, the IC50 [1] is reported as > 9.5 µM and the IC90 is reported as > 9.5 µM.

With `N#Cc1ccccc1COc1ccccc1-c1ccccc1` the IC50 (PBLUC_HILL_SLOPE 3.31, PBLUC_R_SQUARED 0.0977, read-out: LUCIFERASE INFECTION ASSAY - IC50) was 7.89 µM and the IC90 was > 10 µM.

For `CCCCNC(=O)c1c(NC(=O)c2ccc(F)c(F)c2)nc2ccccn12`, the IC50 (FFLUC_HILL_SLOPE 25.4, FFLUC_R_SQUARED 0.228, HEPG2TOX_HILL_SLOPE 1.03, HEPG2TOX_R_SQUARED 0.844, PBLUC_HILL_SLOPE 2.52, PBLUC_R_SQUARED 0.719, read-out: LUCIFERASE INFECTION ASSAY - IC50) was 0.313 µM and the IC90 was 0.748 µM.

`COc1cc(/C=C2\COC/C(=C\c3cc(OC)c(OC)c(OC)c3)C2=O)cc(OC)c1OC` was tested, and the IC50 (HEPG2TOX_HILL_SLOPE 2.96, HEPG2TOX_R_SQUARED 0.98, PBLUC_HILL_SLOPE 14, PBLUC_R_SQUARED 0.753, read-out: LUCIFERASE INFECTION ASSAY - IC50) was 0.759 µM and the IC90 was 0.888 µM.

In the case of `c1ccc(CN2CCc3nc(NCc4cccc(Oc5ccccc5)c4)ncc3C2)cc1`, the IC50 [1] is reported as > 7.81 µM and the IC90 is reported as > 7.81 µM.

For `OC(CN1CCCCC1)Cn1c2ccc(Br)cc2c2cc(Br)cc(Br)c21` (stereo not drawn), the IC50 [1] was > 6.05 µM and the IC90 was > 6.05 µM.

`CCCc1cc(NCc2ccccn2)n2nc(C)c(-c3ccccc3)c2n1` was tested, and the IC50 (PBLUC_HILL_SLOPE 8.47, PBLUC_R_SQUARED 0.549, read-out: LUCIFERASE INFECTION ASSAY - IC50) was 3.45 µM and the IC90 was 4.47 µM.

In the case of `O=C(O)c1ccc(CN2C(=O)CCC2=O)cc1`, the IC50 [1] is reported as > 10 µM and the IC90 is reported as > 10 µM.

In the case of `C=CCNC(=O)CN(C)S(=O)(=O)c1ccc2c(c1)OCCCO2`, the IC50 [1] is reported as > 10 µM and the IC90 is reported as > 10 µM.

Compound `Cc1ccc2c(Cl)cc(Cl)c(OC(=O)C3CC3)c2n1` has an IC50 (HEPG2TOX_HILL_SLOPE 1.04, HEPG2TOX_R_SQUARED 0.959, PBLUC_HILL_SLOPE 1.84, PBLUC_R_SQUARED 0.861, read-out: LUCIFERASE INFECTION ASSAY - IC50) of 1.84 µM and an IC90 of 6.06 µM.

In the case of `CCCNC(=O)C1(C)CCN(Cc2ccc3ccccc3n2)C1` (stereo not drawn), the IC50 [1] is reported as > 10.6 µM and the IC90 is reported as > 10.6 µM.

Work on `O=C(NCc1ccc(N2CCCC2=O)cc1)c1cccnc1OCC(F)(F)F` yielded an IC50 (HEPG2TOX_HILL_SLOPE 1.59, HEPG2TOX_R_SQUARED 0.969, PBLUC_HILL_SLOPE 1.45, PBLUC_R_SQUARED 0.646, read-out: LUCIFERASE INFECTION ASSAY - IC50) of 0.899 µM and an IC90 of 4.11 µM.

With `O=c1cc(-c2ccccc2)[nH]c2cc(-c3ccccc3)nn12` the IC50 (HEPG2TOX_HILL_SLOPE 1.32, HEPG2TOX_R_SQUARED 0.936, PBLUC_HILL_SLOPE 1.62, PBLUC_R_SQUARED 0.566, read-out: LUCIFERASE INFECTION ASSAY - IC50) was 3.75 µM and the IC90 was > 11.5 µM.

`COC(=O)c1c(NC(=O)c2cccnc2)c2cc(NCC(C)C)cnc2n1CC(C)C` was tested, and the IC50 [1] was > 7.79 µM and the IC90 was > 7.79 µM.
